The values that follow come from PubChem BioAssay (NCI).

Each structure is given as a SMILES string. “And” between values parts separate entries of the source, which are not always exact repeats. Identical values can stand only once.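 In this assay, cells in 96-well plates receive the compound at five concentrations for 48 hours. Endpoints are linearly interpolated between the surrounding concentrations. Here, GI50 denotes the concentration required for 50% inhibition of growth. TGI: total growth inhibition.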

Test systems include HT29 colon; TK-10 renal; HOP-92 NSCLC; HOP-62 NSCLC; MALME-3M melanoma; T-47D breast; MOLT-4 leukemia; SR leukemia.
Holding throughout (experiment): DTP human tumour cell line panel, 48 h

Turning to `CNCCN(C)Cc1cn[nH]c1-c1ccc(OC2CC(OCCC3CCOCC3)C2)cc1` (stereo unspecified), the GI50 (in general, the concentration giving 50% growth inhibition) in the experiment with HT29 colon was 38.6 µM; in the experiment with TK-10 renal, above 100 µM; in the experiment with HOP-92 NSCLC it was 1.43 µM; in the experiment with HOP-62 NSCLC it was 99.1 µM; in the experiment on MALME-3M melanoma, 28.4 µM; in the experiment on T-47D breast, 27.8 µM. Besides, the GI50 is above 80.2 µM in the experiment with MOLT-4 leukemia and 25.9 µM in the experiment on SR leukemia. Further, the TGI – broadly, the concentration at which net growth stops – with HT29 colon was above 100 µM; in the experiment with TK-10 renal, above 100 µM; with HOP-92 NSCLC, above 50.8 µM; with HOP-62 NSCLC, above 100 µM; with MALME-3M melanoma, above 100 µM; with T-47D breast, above 100 µM. The TGI in the experiment with MOLT-4 leukemia and in the experiment on SR leukemia was above 100 µM throughout.

Consider `FC(F)(F)c1ccc(NCc2nc3ccccc3[nH]2)cc1`, for which the GI50 was 27.9 µM in the experiment on HT29 colon; 38.2 µM in the experiment on TK-10 renal; 12.9 µM in the experiment on HOP-92 NSCLC; 28.8 µM in the experiment on HOP-62 NSCLC; 23.9 µM in the experiment on MALME-3M melanoma; 26.5 µM in the experiment on T-47D breast. Moreover, the figures for the GI50 with MOLT-4 leukemia and with SR leukemia were 21.6 µM and 28.3 µM, respectively. Besides, the TGI with HT29 colon was 81.3 µM; in the experiment on TK-10 renal, above 100 µM; in the experiment on HOP-92 NSCLC, 36.8 µM; with HOP-62 NSCLC, 96.4 µM; with MALME-3M melanoma it was 69.5 µM; in the experiment with T-47D breast, 80.6 µM. Further, the TGI in the experiment on MOLT-4 leukemia was 63 µM; in the experiment on SR leukemia it was above 100 µM.

In the case of `COc1ccc(/C=C2/CN(CCC#N)C/C(=C\c3ccc(OC)cc3)C2=O)cc1`, the GI50 with HT29 colon is 1.9 µM; in the experiment on TK-10 renal, 3.21 µM; with HOP-92 NSCLC, 1.85 µM; with HOP-62 NSCLC, 2.17 µM; in the experiment with MALME-3M melanoma, 2.95 µM; in the experiment with T-47D breast it was 3.76 µM. The GI50 is 3.69 µM in the experiment with MOLT-4 leukemia and 1.07 µM in the experiment with SR leukemia. Besides, the TGI in the experiment with HT29 colon was 3.9 µM; in the experiment on TK-10 renal, 7.91 µM; in the experiment on HOP-92 NSCLC it was 20.8 µM; in the experiment on HOP-62 NSCLC, 4.79 µM; in the experiment with MALME-3M melanoma, 8.58 µM; in the experiment on T-47D breast, above 100 µM. Also, the TGI in the experiment with MOLT-4 leukemia and in the experiment with SR leukemia was above 100 µM each time.

With `COC(=O)[C@]12CC[C@@H](C)[C@H](C)[C@@H]1C1=CC[C@@H]3[C@@]4(C)CC(=O)[C@H](O)[C@@](C)(CO)[C@@H]4C(=O)C[C@@]3(C)[C@]1(C)CC2`, the GI50 with HT29 colon was 14.5 µM; in the experiment with TK-10 renal, 19.7 µM; in the experiment with HOP-92 NSCLC, 15.3 µM; in the experiment with HOP-62 NSCLC, 13.3 µM; with MALME-3M melanoma it was 4.52 µM; with T-47D breast, 2.44 µM. Also, the results for the GI50 with MOLT-4 leukemia and with SR leukemia were 10.3 µM and 5.95 µM, respectively. Also, the TGI with HT29 colon was 30.4 µM; in the experiment on TK-10 renal, 34 µM; with HOP-92 NSCLC, 30.1 µM; in the experiment on HOP-62 NSCLC, 27.4 µM; in the experiment on MALME-3M melanoma, 22 µM; with T-47D breast, 26.4 µM. Further, the TGI in the experiment with MOLT-4 leukemia and in the experiment on SR leukemia was 27.1 µM in each case.

With `CC/C(=N/N=C(N)N)c1ccc(NC(=O)Nc2ccc(/C(CC)=N/N=C(N)N)cc2)cc1`, the GI50 in the experiment with HT29 colon was 7.12 µM; in the experiment on TK-10 renal, 2.31 µM; in the experiment on HOP-92 NSCLC, 5.67 µM; in the experiment with HOP-62 NSCLC it was 10.7 µM; in the experiment on MALME-3M melanoma it was 8.24 µM; in the experiment with T-47D breast, 5.81 µM. Further, the GI50 in the experiment with MOLT-4 leukemia is 2.07 µM; in the experiment on SR leukemia, 2.44 µM. For the same compound, the TGI in the experiment on HT29 colon worked out at 28.1 µM; with TK-10 renal, 9.96 µM; in the experiment with HOP-92 NSCLC, 35.2 µM; with HOP-62 NSCLC, 42.6 µM; with MALME-3M melanoma, 54.5 µM; in the experiment on T-47D breast it was 74.1 µM. Besides, the TGI is 6.51 µM in the experiment with MOLT-4 leukemia and 14.9 µM in the experiment with SR leukemia.

With `O=C1NC(=N[C@H](CO)c2ccccc2)S/C1=C\c1ccc2ncccc2c1`, the GI50 is 6.1 µM with HT29 colon; 1.95 µM in the experiment on TK-10 renal; 4.59 µM in the experiment with HOP-92 NSCLC; 6.73 µM with HOP-62 NSCLC; 6.21 µM in the experiment with MALME-3M melanoma; 4.18 µM with T-47D breast. In addition, the figures for the GI50 with MOLT-4 leukemia and with SR leukemia were 4.47 µM and 0.786 µM, respectively. Further, the TGI is above 25 µM in the experiment on HT29 colon; 20 µM in the experiment with TK-10 renal; 18.7 µM with HOP-92 NSCLC; above 25 µM in the experiment with HOP-62 NSCLC; 22.4 µM in the experiment on MALME-3M melanoma; above 24.1 µM with T-47D breast. The TGI with MOLT-4 leukemia amounted to 14.8 µM; in the experiment with SR leukemia, 4.85 µM.

As to `CC[C@@]1(O)C(=O)NCc2c1cc1n(c2=O)Cc2cc3c(NC(C)=O)cccc3nc2-1`, the GI50 in the experiment with HT29 colon, in the experiment with TK-10 renal, with HOP-92 NSCLC, in the experiment with HOP-62 NSCLC, in the experiment on MALME-3M melanoma and in the experiment with T-47D breast was above 100 µM throughout. The GI50 with MOLT-4 leukemia and in the experiment with SR leukemia was above 100 µM throughout. For the same compound, the TGI in the experiment with HT29 colon, in the experiment with TK-10 renal, in the experiment with HOP-92 NSCLC, in the experiment on HOP-62 NSCLC, with MALME-3M melanoma and in the experiment on T-47D breast was above 100 µM throughout. For the same compound, the concentration for total growth inhibition (TGI) in the experiment on MOLT-4 leukemia and with SR leukemia was above 100 µM throughout.

For `COC(=O)c1ccc2c(C(=Nc3ccc(N(C)C(=O)CN4CCN(C)CC4)cc3)c3ccccc3)c(O)[nH]c2c1`, the GI50 in the experiment on HT29 colon was 1.22 µM; in the experiment with TK-10 renal, 4.63 µM and 19.2 µM; with HOP-92 NSCLC, 0.69 µM and 1.56 µM; in the experiment on HOP-62 NSCLC it was 1.36 µM and 2.32 µM; in the experiment with MALME-3M melanoma, 1.37 µM and 1.44 µM; with T-47D breast, 3.66 µM and 16.7 µM. Further, the GI50 is 2.21 µM and 2.74 µM with MOLT-4 leukemia; 2.5 µM in the experiment on SR leukemia. In addition, the TGI is 3.9 µM with HT29 colon; 23.5 µM and > 100 µM with TK-10 renal; 12.7 µM and 15 µM in the experiment with HOP-92 NSCLC; 12.2 µM and > 100 µM with HOP-62 NSCLC; 2.94 µM and 3.46 µM in the experiment on MALME-3M melanoma; 36.3 µM and > 100 µM in the experiment with T-47D breast. The TGI in the experiment with MOLT-4 leukemia is 22.1 µM and > 100 µM; in the experiment with SR leukemia, above 44.7 µM.

On to `Cc1cn2c(/C=C3/C(=O)Nc4ccc(Cl)cc43)c(C)nc2s1`, for which the TGI in the experiment with HT29 colon was above 56.8 µM; with TK-10 renal it was 17.5 µM; with HOP-92 NSCLC, 70.1 µM; with HOP-62 NSCLC, 18.3 µM; in the experiment on T-47D breast it was above 75 µM; with MOLT-4 leukemia it was above 100 µM. The TGI with SR leukemia was above 100 µM. Besides, the GI50 in the experiment on TK-10 renal is 2.42 µM; in the experiment on HOP-92 NSCLC, 16 µM; with HOP-62 NSCLC, 0.214 µM; with MALME-3M melanoma, 1.22 µM; with T-47D breast, 4.09 µM; with MOLT-4 leukemia it was 0.0776 µM.
